Two molecules from patent US20250032524A1, “BROAD SPECTRUM AMINOGLYCOSIDES AND USES THEREOF” (REVAGENIX, INC., priority 2022, published 2025) can be followed below.

Where two headings read alike, the source gives them in different places.

Broadly, the MIC is the least concentration at which growth counts as inhibited.

Common to all, as to test: MIC broth microdilution (CLSI)
Assay type in all cases: cell-based
A general note: In broth dilution the organism is exposed to a series of concentrations in liquid medium.

The test system of one experiment is A. baumannii. Conditions: Acinetobacter baumannii. Here is the method: (§1) Minimum inhibitory concentrations for representative example compounds herein were determined by a broth microdilution method in accordance with the Clinical and Laboratory Standards Institute (CLSI) guidelines. In brief, organism suspensions were adjusted to a 0.5 McFarland standard to yield a final inoculum between 3×10^5 and 7×10^5 colony-forming units (CFU)/mL. The inoculum was prepared by suspension of a colony from an agar plate that was prepared the previous day. Compound dilutions and inoculum were prepared in sterile, cation adjusted Mueller-Hinton Broth (Beckton Dickinson).
(§2) Bacteria were suspended in sterile saline and added to each assay plate to obtain a final concentration of 5×10^5 CFU/mL. An inoculum volume of 100 μL was added to wells containing 100 μL of broth with 2-fold serial dilutions of the test compound. All inoculated microdilution trays were incubated in ambient air at 35° C. for 18-24 hours. Following incubation, the lowest concentration of the compound that prevented visible growth (OD 600 nm<0.05) is recorded was the MIC. […] Performance of the assay was monitored by the use of laboratory quality-control strains and a standard compound with a defined MIC spectrum (neomycin), in accordance with CLSI guidelines.

Another experiment deals with E. coli. As to conditions: Escherichia coli. Here is the method:
as §1, §2

The next experiment concerns P. aeruginosa. Conditions: Pseudomonas aeruginosa. Here is the method: as §1, §2
[1] abbreviates: read-out: Activity (MIC), strain NABA0007, ΔadeJK efflux.
Setting [2] is: strain NABA0006, WT parent, read-out: Activity (MIC).
The mark [3] stands for this setting: strain NABA0020, AME negative strain, read-out: Activity (MIC).
Setting [4] is: read-out: Activity (MIC), strain NECO0003, ΔtolC.
Where [5] appears, read: read-out: Activity (MIC), strain NECO0245, ArmA.
Setting [6] is: strain NECO0001, WT QC, read-out: Activity (MIC).
Where [7] appears, read: strain NECO0002, WT, read-out: Activity (MIC).
The mark [8] stands for this setting: strain NECO0243, empty vector, read-out: Activity (MIC).
Setting [9] is: strain NECO0244, AAC(6')-Ib, read-out: Activity (MIC).
[10] abbreviates: strain NECO0289, APH(3')-Ia, read-out: Activity (MIC).
Where [11] appears, read: strain NECO0302, AAC(3)-IIa, read-out: Activity (MIC).
The mark [12] stands for this setting: strain NECO0350, AAC(2')-I, read-out: Activity (MIC).
Where [13] appears, read: strain NECO0359, ANT(4')-Ia, read-out: Activity (MIC).
[14] abbreviates: read-out: Activity (MIC), strain NPAE0006, Efflux KO, Aph(3')-IIb.
[15] abbreviates: read-out: Activity (MIC), strain NPAE0010, MexXY over-expressed, Aph(3')-IIb.
[16] abbreviates: strain NPAE0001, WT Aph(3')-IIb, QC, read-out: Activity (MIC).
Where [17] appears, read: strain NPAE0002, WT Aph(3')-IIb, read-out: Activity (MIC).
[18] abbreviates: strain NPAE0359, aph(3')-IIb KO (tetR), read-out: Activity (MIC).

For the molecule `CN[C@@H](C)[C@@H]1CC[C@@H](N)[C@@H](O[C@@H]2[C@@H](N)[C@H](O)[C@@H](NC(=O)[C@@H](O)[C@H](F)CN)[C@H](O)[C@H]2O[C@@H]2O[C@H](CO)[C@@H](O[C@H]3O[C@@H](CN)[C@@H](O)[C@H](O)[C@H]3N)[C@H]2O)O1` [Compound 7, (2R,3R)-4-amino-N-((1R,2S,3S,4R,5R,6S)-3-amino-4-(((2R,3R,6S)-3-amino-6-((S)-1-(methylamino)ethyl)tetrahydro-2H-pyran-2-yl)oxy)-5-(((2S,3R,4S,5R)-4-(((2R,3R,4R,5S,6S)-3-amino-6-(aminomethyl)-4,5-dihydroxytetrahydro-2H-pyran-2-yl)oxy)-3-hydroxy-5-(hydroxymethyl)tetrahydrofuran-2-yl)oxy)-2,6-dihydroxycyclohexyl)-3-fluoro-2-hydroxybutanamide], the MIC in the experiment on A. baumannii (setting [1]), in the experiment with A. baumannii (setting [2]), in the experiment with A. baumannii (setting [3]), in the experiment on E. coli (setting [4]), in the experiment with E. coli (setting [5]) and in the experiment with E. coli (setting [6]) was < 16 µg/mL in each case. Also, the MIC in the experiment with E. coli (setting [7]) was < 16 µg/mL; in the experiment with E. coli (setting [8]), < 16 µg/mL; with E. coli (setting [9]), < 16 µg/mL; in the experiment with E. coli (setting [10]), > 16 µg/mL; with E. coli (setting [11]), < 16 µg/mL; in the experiment on E. coli (setting [12]), < 16 µg/mL. The MIC with E. coli (setting [13]) is < 16 µg/mL; in the experiment on P. aeruginosa (setting [14]), < 16 µg/mL; in the experiment with P. aeruginosa (setting [15]), > 16 µg/mL; in the experiment with P. aeruginosa (setting [16]) it was < 16 µg/mL; in the experiment with P. aeruginosa (setting [17]), < 16 µg/mL; with P. aeruginosa (setting [18]), < 16 µg/mL.
On to `C[C@H](N)[C@@H]1CC[C@@H](N)[C@@H](O[C@@H]2[C@@H](N)[C@H](O)[C@@H](N)[C@H](O)[C@H]2O[C@@H]2O[C@H](CO)[C@@H](O[C@H]3O[C@@H](CN)[C@@H](O)[C@H](O)[C@H]3N)[C@H]2O)O1` [Compound 8, (2S,3S,4R,5R,6R)-5-amino-2-(aminomethyl)-6-(((2R,3S,4R,5S)-5-(((1R,2R,3S,4R,5R,6S)-3,5-diamino-2-(((2R,3R,6S)-3-amino-6-((S)-1-aminoethyl)tetrahydro-2H-pyran-2-yl)oxy)-4,6-dihydroxycyclohexyl)oxy)-4-hydroxy-2-(hydroxymethyl)tetrahydrofuran-3-yl)oxy)tetrahydro-2H-pyran-3,4-diol], for which the MIC was < 16 µg/mL with A. baumannii (setting [1]); < 16 µg/mL in the experiment on A. baumannii (setting [2]); > 16 µg/mL with A. baumannii (setting [3]); < 16 µg/mL in the experiment on E. coli (setting [4]); < 16 µg/mL in the experiment on E. coli (setting [5]); < 16 µg/mL in the experiment on E. coli (setting [6]). Besides, the MIC with E. coli (setting [7]) is < 16 µg/mL; in the experiment with E. coli (setting [8]) it was < 16 µg/mL; with E. coli (setting [9]), < 16 µg/mL; with E. coli (setting [10]), > 16 µg/mL; in the experiment on E. coli (setting [11]), < 16 µg/mL; in the experiment on E. coli (setting [12]), < 16 µg/mL. Besides, the MIC in the experiment with E. coli (setting [13]), in the experiment on P. aeruginosa (setting [14]), in the experiment with P. aeruginosa (setting [15]), in the experiment with P. aeruginosa (setting [16]), with P. aeruginosa (setting [17]) and in the experiment with P. aeruginosa (setting [18]) was < 16 µg/mL throughout.
